Experimental data from article PMC7531004, “Discovery of gramicidin A analogues with altered activities by multidimensional screening of a one-bead-one-compound library” (Nature Communications, 2020).
Where a SMILES comes first, the peptide text is derived from it. [ ]: non-standard residue; d: D form. The star is where a group is joined. NHCH2CH2OH = OCCN*; For = O=C*

How the values were obtained:
[1] = H+/Na+ transport assay of bead-derived peptides (one-point); format: biochemical; parameters: key: relative activity; mean of two control wells = 1.00; conditions: bead-derived peptide solution, EYPC/EYPG LUVs;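 also: relative to parent gramicidin A activity set to 1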
Outline: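 Pyranine (1.0 mM)-loaded LUVs containing egg yolk phosphatidylglycerol were prepared by film hydration, sonication and extrusion, then mixed with diluted bead-derived peptide in 96-well format and vortexed 30 min at room temperature. Fluorescence was normalized between untreated LUVs (0%) and Triton X-100 lysis (100%).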

[2] = system: P388 mouse leukemia cells; conditions: 92 h
Outline: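 Peptide stocks diluted 250× in growth medium; P388 cells 1 × 10^4 cells/mL final; 37 °C, 5% CO2, 92 h. WST-1 + 1-methoxy PMS, 4 h, A415. Output: % viability.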

[3] = system: Streptococcus pyogenes SSI-9; assay: Antibacterial activity assay of bead-derived peptides (three concentrations); format: cell-based; parameters: key: +++: inhibition by the 640-fold diluted peptide solution; ++: inhibition by the 160-fold diluted solution; +: inhibition by the 40-fold diluted solution; -: no inhibition; conditions: S. pyogenes, bead-derived peptide solution, three concentrations
Outline: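 First, each peptide stock was diluted 4- and 16-fold in DMSO; next, the three solutions were mixed with S. pyogenes SSI-9 suspension (2 × 10^5 CFU) in cation-adjusted Mueller Hinton Broth plus 5% laked horse blood; finally, plates stood 18 h at 37 °C before checking for grown-cell precipitation.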

SMILES | H+/Na+ transport activity normalized against the value of 1 (1.00) [1] | cell viability/% [2] [%] | antibacterial activity [3]
CC(C)C[C@@H](NC(=O)[C@H](C)NC(=O)[C@H](NC(=O)[C@H](C)NC(=O)CNC(=O)[C@@H](NC=O)C(C)C)C(C)C)C(=O)N[C@H](C(=O)N[C@@H](C(=O)N[C@@H](Cc1c[nH]c2ccccc12)C(=O)N[C@H](CC(C)C)C(=O)N[C@@H](Cc1c[nH]c2ccccc12)C(=O)N[C@@H](C(=O)N[C@@H](Cc1c[nH]c2ccccc12)C(=O)N[C@H](CC(C)C)C(=O)N[C@@H](Cc1c[nH]c2ccccc12)C(=O)NCCO)C(C)C)C(C)C)C(C)C [compound 7146] (For-VGA[dV]A[dL]V[dV]W[dL]W[dV]W[dL]W-NHCH2CH2OH) | 1.17 | 100.0 | +
CC(C)C[C@@H](NC(=O)[C@H](C)NC(=O)[C@H](NC(=O)[C@H](C)NC(=O)CNC(=O)[C@@H](NC=O)C(C)C)C(C)C)C(=O)N[C@H](C(=O)N[C@@H](C(=O)N[C@@H](Cc1c[nH]c2ccccc12)C(=O)N[C@@H](C(=O)N[C@@H](Cc1c[nH]c2ccccc12)C(=O)N[C@H](CC(C)C)C(=O)N[C@@H](Cc1c[nH]c2ccccc12)C(=O)N[C@H](CC(C)C)C(=O)N[C@@H](Cc1c[nH]c2ccccc12)C(=O)NCCO)C(C)C)C(C)C)C(C)C [compound 7169] (For-VGA[dV]A[dL]V[dV]W[dV]W[dL]W[dL]W-NHCH2CH2OH) | 1.15 | 90.3 | +
CC(C)C[C@@H](NC(=O)[C@H](C)NC(=O)CNC(=O)[C@@H](NC=O)C(C)C)C(=O)N[C@@H](C)C(=O)N[C@@H](C(=O)N[C@H](C(=O)N[C@H](CC(C)C)C(=O)N[C@@H](Cc1c[nH]c2ccccc12)C(=O)N[C@H](CC(C)C)C(=O)N[C@@H](Cc1c[nH]c2ccccc12)C(=O)N[C@@H](C(=O)N[C@@H](Cc1c[nH]c2ccccc12)C(=O)N[C@H](CC(C)C)C(=O)N[C@@H](Cc1c[nH]c2ccccc12)C(=O)NCCO)C(C)C)C(C)C)C(C)C [compound 7191] (For-VGA[dL]A[dV]V[dL]W[dL]W[dV]W[dL]W-NHCH2CH2OH) | 1.15 | 0.0 | +
CC(C)C[C@@H](NC(=O)[C@H](C)NC(=O)CNC(=O)[C@@H](NC=O)C(C)C)C(=O)N[C@@H](C)C(=O)N[C@H](CC(C)C)C(=O)N[C@H](C(=O)N[C@@H](C(=O)N[C@@H](Cc1c[nH]c2ccccc12)C(=O)N[C@@H](C(=O)N[C@@H](Cc1c[nH]c2ccccc12)C(=O)N[C@H](CC(C)C)C(=O)N[C@@H](Cc1c[nH]c2ccccc12)C(=O)N[C@H](CC(C)C)C(=O)N[C@@H](Cc1c[nH]c2ccccc12)C(=O)NCCO)C(C)C)C(C)C)C(C)C [compound 7198] (For-VGA[dL]A[dL]V[dV]W[dV]W[dL]W[dL]W-NHCH2CH2OH) | 1.09 | 16.1 | +
CC(C)C[C@@H](NC(=O)[C@H](C)NC(=O)CNC(=O)[C@@H](NC=O)C(C)C)C(=O)N[C@@H](C)C(=O)N[C@H](CC(C)C)C(=O)N[C@H](C(=O)N[C@H](CC(C)C)C(=O)N[C@@H](Cc1c[nH]c2ccccc12)C(=O)N[C@@H](C(=O)N[C@@H](Cc1c[nH]c2ccccc12)C(=O)N[C@H](CC(C)C)C(=O)N[C@@H](Cc1c[nH]c2ccccc12)C(=O)N[C@H](CC(C)C)C(=O)N[C@@H](Cc1c[nH]c2ccccc12)C(=O)NCCO)[C@H](C)O)C(C)C [compound 7211] (For-VGA[dL]A[dL]V[dL]W[dT]W[dL]W[dL]W-NHCH2CH2OH) | 1.03 | 100.0 | -
CNC(=O)C[C@@H](NC(=O)[C@H](Cc1c[nH]c2ccccc12)NC(=O)[C@H](NC(=O)[C@H](Cc1c[nH]c2ccccc12)NC(=O)[C@@H](CC(C)C)NC(=O)[C@H](Cc1c[nH]c2ccccc12)NC(=O)[C@H](NC(=O)[C@@H](NC(=O)[C@@H](CC(C)C)NC(=O)[C@H](C)NC(=O)[C@H](NC(=O)[C@H](C)NC(=O)CNC(=O)[C@@H](NC=O)C(C)C)C(C)C)C(C)C)C(C)C)C(C)C)C(=O)N[C@@H](Cc1c[nH]c2ccccc12)C(=O)NCCO [compound 7228] (For-VGA[dV]A[dL]V[dV]W[dL]W[dV]W[dD](NHMe)W-NHCH2CH2OH) | 1.06 | 100.0 | -
CNC(=O)C[C@@H](NC(=O)[C@H](Cc1c[nH]c2ccccc12)NC(=O)[C@H](NC(=O)[C@H](Cc1c[nH]c2ccccc12)NC(=O)[C@H](NC(=O)[C@H](Cc1c[nH]c2ccccc12)NC(=O)[C@@H](CC(C)C)NC(=O)[C@@H](NC(=O)[C@H](NC(=O)[C@H](C)NC(=O)[C@H](NC(=O)[C@H](C)NC(=O)CNC(=O)[C@@H](NC=O)C(C)C)C(C)C)C(C)C)C(C)C)C(C)C)C(C)C)C(=O)N[C@@H](Cc1c[nH]c2ccccc12)C(=O)NCCO [compound 7271] (For-VGA[dV]A[dV]V[dL]W[dV]W[dV]W[dD](NHMe)W-NHCH2CH2OH) | 1.02 | 10.6 | -
CC(C)C[C@@H](NC(=O)[C@H](C)NC(=O)[C@H](NC(=O)[C@H](C)NC(=O)CNC(=O)[C@@H](NC=O)C(C)C)C(C)C)C(=O)N[C@H](C(=O)N[C@H](CC(C)C)C(=O)N[C@@H](Cc1c[nH]c2ccccc12)C(=O)N[C@@H](C(=O)N[C@@H](Cc1c[nH]c2ccccc12)C(=O)N[C@@H](C(=O)N[C@@H](Cc1c[nH]c2ccccc12)C(=O)N[C@H](CC(C)C)C(=O)N[C@@H](Cc1c[nH]c2ccccc12)C(=O)NCCO)C(C)C)[C@H](C)O)C(C)C [compound 7325] (For-VGA[dV]A[dL]V[dL]W[dT]W[dV]W[dL]W-NHCH2CH2OH) | 1.04 | 82.2 | -
CC(C)C[C@@H](NC(=O)[C@H](C)NC(=O)[C@H](NC(=O)[C@H](C)NC(=O)CNC(=O)[C@@H](NC=O)C(C)C)C(C)C)C(=O)N[C@H](C(=O)N[C@@H](C(=O)N[C@@H](Cc1c[nH]c2ccccc12)C(=O)N[C@@H](C(=O)N[C@@H](Cc1c[nH]c2ccccc12)C(=O)N[C@H](CC(C)C)C(=O)N[C@@H](Cc1c[nH]c2ccccc12)C(=O)N[C@@H](C(=O)N[C@@H](Cc1c[nH]c2ccccc12)C(=O)NCCO)[C@H](C)O)C(C)C)C(C)C)C(C)C [compound 7393] (For-VGA[dV]A[dL]V[dV]W[dV]W[dL]W[dT]W-NHCH2CH2OH) | 1.07 | 100.0 | -
CNC(=O)C[C@@H](NC(=O)[C@@H](NC(=O)[C@@H](CC(C)C)NC(=O)[C@H](C)NC(=O)[C@@H](CC(C)C)NC(=O)[C@H](C)NC(=O)CNC(=O)[C@@H](NC=O)C(C)C)C(C)C)C(=O)N[C@@H](Cc1c[nH]c2ccccc12)C(=O)N[C@H](CC(C)C)C(=O)N[C@@H](Cc1c[nH]c2ccccc12)C(=O)N[C@@H](C(=O)N[C@@H](Cc1c[nH]c2ccccc12)C(=O)N[C@H](CC(C)C)C(=O)N[C@@H](Cc1c[nH]c2ccccc12)C(=O)NCCO)C(C)C [compound 7400] (For-VGA[dL]A[dL]V[dD](NHMe)W[dL]W[dV]W[dL]W-NHCH2CH2OH) | 1.30 | 100.0 | -
CC(C)C[C@@H](NC(=O)[C@H](C)NC(=O)CNC(=O)[C@@H](NC=O)C(C)C)C(=O)N[C@@H](C)C(=O)N[C@H](CC(C)C)C(=O)N[C@H](C(=O)N[C@H](CC(C)C)C(=O)N[C@@H](Cc1c[nH]c2ccccc12)C(=O)N[C@@H](C(=O)N[C@@H](Cc1c[nH]c2ccccc12)C(=O)N[C@@H](C(=O)N[C@@H](Cc1c[nH]c2ccccc12)C(=O)N[C@@H](C(=O)N[C@@H](Cc1c[nH]c2ccccc12)C(=O)NCCO)C(C)C)C(C)C)C(C)C)C(C)C [compound 7408] (For-VGA[dL]A[dL]V[dL]W[dV]W[dV]W[dV]W-NHCH2CH2OH) | 1.06 | 19.4 | -
CNC(=O)C[C@@H](NC(=O)[C@@H](NC(=O)[C@H](NC(=O)[C@H](C)NC(=O)[C@H](NC(=O)[C@H](C)NC(=O)CNC(=O)[C@@H](NC=O)C(C)C)C(C)C)C(C)C)C(C)C)C(=O)N[C@@H](Cc1c[nH]c2ccccc12)C(=O)N[C@H](CC(C)C)C(=O)N[C@@H](Cc1c[nH]c2ccccc12)C(=O)N[C@H](CC(C)C)C(=O)N[C@@H](Cc1c[nH]c2ccccc12)C(=O)N[C@H](CC(C)C)C(=O)N[C@@H](Cc1c[nH]c2ccccc12)C(=O)NCCO [compound 7437] (For-VGA[dV]A[dV]V[dD](NHMe)W[dL]W[dL]W[dL]W-NHCH2CH2OH) | 1.11 | 100.0 | -
CNC(=O)C[C@@H](NC(=O)[C@H](Cc1c[nH]c2ccccc12)NC(=O)[C@H](NC(=O)[C@H](Cc1c[nH]c2ccccc12)NC(=O)[C@H](NC(=O)[C@H](Cc1c[nH]c2ccccc12)NC(=O)[C@H](NC(=O)[C@@H](NC(=O)[C@@H](CC(C)C)NC(=O)[C@H](C)NC(=O)[C@H](NC(=O)[C@H](C)NC(=O)CNC(=O)[C@@H](NC=O)C(C)C)C(C)C)C(C)C)C(C)C)C(C)C)C(C)C)C(=O)N[C@@H](Cc1c[nH]c2ccccc12)C(=O)NCCO [compound 7479] (For-VGA[dV]A[dL]V[dV]W[dV]W[dV]W[dD](NHMe)W-NHCH2CH2OH) | 1.00 | 100.0 | -
